Measured values published in article PMC5286506 (Scientific Reports, 2017).
Read-outs that look alike come from different tables or passages of the source.

How the values were obtained:
[1] = tested on: HSV-2; design: method as in PMID 20643915, PMID 22018238, PMID 20709216; details: CAPRISA 004 trial; cited from earlier work
[2] = tested on: EpiVaginal tissue model; details: human, 20 μM
Protocol: (§1) At the end of the incubation at 37 °C, the hydrogel was discarded and the cervicovaginal cultures were washed with PBS to remove any residual hydrogel. The cervicovaginal cultures were analyzed using the MTT kit protocol (MatTek Corporation). Cell cultures incubated with sterile distilled water were employed as a negative control. Triton X-100 (1%)-treated cultures were used as the positive control. The LDH cytotoxicity detection kit (TaKaRa Bio Inc, Japan) was used to detect LDH release from the tissues according to the manufacturer’s protocols. […] After incubation, the concentration of IL-1α in the culture medium was measured using the IL-1α ELISA Kit, according to the manufacturer’s instructions (Bender Medsystem, Wien, Austria). The concentration of IL-1α was calculated by interpolation from a standard calibration curve.

[3] = tested on: HIV-1 subtype B and C isolates (HIV-1AMBR5N, HIV-1FBR5N, HIV-1SLR5N, HIV-1ARR5X4, HIV-1CSBX4); test: Patient-derived HIV-1 isolates in activated PBMCs, p24 ELISA on day 7; assay type: cell-based; details: 1 μM M48U1 (five isolates) or 5 μM tenofovir (three isolates from naïve patients) in 0.25% HEC; p < 0.05
Protocol: (§2) Mock-infected PBMCs were used as the negative control.
(§3) Figure 2 M48U1 in 0.25% HEC and tenofovir in 0.25% HEC each inhibited several laboratory strains and patient-derived HIV-1 isolates. Treatment with either 1 μM M48U1/0.25% (A) or 5 μM tenofovir/0.25% HEC (B) inhibited the replication of all tested laboratory and patient-derived strains. The HIV-1 strain tropism was determined with a sequencing analysis for the patient-derived strains. The combination of the two HIV-1 drugs inhibited HIV-1 replication independent of the HIV-1 strain tropism. HIV-1 replication was monitored by the HIV-1 p24 ELISA assay using cell culture supernatants obtained on day 7 post-infection. […] Three experiments in triplicate were performed. Analysis of antiretroviral activity of 1 μM M48U1 in 0.25% HEC (C) or 5 μM tenofovir in 0.25% HEC (D) performed in TZM-bl cells infected with pREJO.c/2864 and pTHRO.c/2626 T/F IMCs. […] Each sample was performed in triplicate and was repeated in three independent experiments.

[4] = tested on: HIV-1BaL, HIV-1IIIb, HIV-1ADA, HIV-1RU132, HIV-1ARV-2, HIV-1CBL4; test: Laboratory HIV-1 strains in activated PBMCs, p24 ELISA on day 7; assay type: cell-based; details: 1 μM M48U1 or 5 μM tenofovir in 0.25% HEC; p < 0.05
Protocol: as §2, §3

[5] = tested on: HIV-1BaL; test: HIV-1BaL-infected cervicovaginal histoculture (EpiVaginal), proviral DNA qPCR; assay type: cell-based; details: day 4 post-infection, vs HEC-treated infected samples
Protocol: The EpiVaginal Tissue Model (VLC-100FT; MatTek Corporation, Ashland, MA, USA) was maintained in a 24-well plate according to the manufacturer’s instructions. […] Subsequently, the wells were challenged with HIV-1BaL (25 ng p24/tissue well) for 24 hours. Mock-infected 0.25% HEC-treated wells were used as negative control. The apical surface of each tissue was washed twice with PBS after incubation with HIV-1BaL and the same formulations were added on day 1 for 24 hours. The underlying media was changed every day, and cervicovaginal tissues were harvested on day 4 post-infection.
Total DNA was extracted and purified from the tissues using the QIAamp DNA Mini Kit (Qiagen, Hilden, Germany). Proviral DNA was quantified by real-time quantitative PCR assay using the HIV-1 DNA qPCR kit (Diatheva, Fano, Italy) based on SYBR Green chemistry as indicated by the manufacturer. […] Total DNA amount was determined by spectrophotometry. The amplification was carried out as follows: an initial cycle of denaturation step at 95 °C for 15 minutes, followed by 10 cycles of denaturation at 95 °C for 15 seconds and annealing/extension at 68 °C for 35 seconds, and a final 35 cycles of denaturation at 95 °C for 15 seconds and annealing/extension with fluorescence acquisition at 68 °C for 35 seconds. […]

[6] = tested on: X4-tropic HIV-1IIIb; test: HIV-1IIIb infection of activated PBMCs, HIV-1 gag p24 ELISA on day 7; assay type: cell-based
Protocol: as §2
(§4) The antiviral activity of each drug, M48U1 and tenofovir, formulated in 0.25% HEC hydrogel was determined in an activated PBMC model. […] This mixture was added to PBMCs activated with IL-2 and PHA for a two-hour incubation at 37 °C. To evaluate the antiviral effect of M48U1, the level of HIV-1 gag p24 protein in the culture supernatant was determined at seven days post-infection using an ELISA. A significant decrease (p < 0.05; Mann Whitney test) in the HIV-1 p24 level was found (Fig. 1).
(§5) Figure 1 M48U1 and tenofovir formulated in 0.25% HEC each inhibited the replication of both R5-tropic HIV-1BaL and X4-tropic HIV-1IIIb in activated PBMCs. […] After this incubation, these solutions were used to resuspend activated PBMCs for 2 hours at 37 °C. HIV-1 replication was monitored by a HIV-1 p24 ELISA assay on the cell culture supernatants performed on day 7 post-infection. […] Three experiments in triplicate were performed.

[7] = tested on: pREJO.c/2864 T/F IMC; test: T/F IMC infection of TZM-bl cells, luciferase readout; assay type: cell-based, HIV-1; details: pREJO.c/2864, TZM-bl cells
Protocol: (§6) TZM-bl cells (1 × 10^4/well in a 100 μL volume) in 10% D-MEM growth medium containing DEAE-dextran (Sigma) at a final concentration of 7.5 μg/mL were then added to the plate. Assay controls included replicate wells of TZM-bl cells alone in HEC 0.25% (cell control) and TZM-bl cells with virus (virus control). Following 72 hours of incubation at 37 °C, 150 μL of culture medium were removed from each well and replaced with 100 μL of Bright-Glo luciferase reagent (Promega). After 2-minutes of incubation, 150 μL of the cell lysate were transferred to a 96-well white solid plate and luminescence was measured using a Victor Light 2030 luminometer (Perkin Elmer). The percentage of infection for each T/F strain was calculated by comparing the relative luminescence units (RLU) of the virus control wells after subtraction of the cell control RLU[44].
(§7) Figure 2 M48U1 in 0.25% HEC and tenofovir in 0.25% HEC each inhibited several laboratory strains and patient-derived HIV-1 isolates. Treatment with either 1 μM M48U1/0.25% (A) or 5 μM tenofovir/0.25% HEC (B) inhibited the replication of all tested laboratory and patient-derived strains. The HIV-1 strain tropism was determined with a sequencing analysis for the patient-derived strains. […] HIV-1 replication was monitored by the HIV-1 p24 ELISA assay using cell culture supernatants obtained on day 7 post-infection. […]

[8] = MTT tissue viability in the EpiVaginal tissue model; assay type: cell-based; details: human, EpiVaginal tissue model (cervicovaginal cultures), 20 μM tenofovir and/or 6.7 μM M48U1 in 0.25% HEC
Protocol: as §1

[9] = tested on: pTHRO.c/2626 T/F IMC; test: T/F IMC infection of TZM-bl cells, luciferase readout; assay type: cell-based, HIV-1; details: pTHRO.c/2626, TZM-bl cells
Protocol: as §6, §7

[10] = in vitro; details: human, activated PBMCs
[11] = tested on: R5-tropic HIV-1BaL; test: HIV-1BaL infection of activated PBMCs, HIV-1 gag p24 ELISA on day 7; assay type: cell-based
Protocol: as §2, §4, §5

[12] = 1 μM M48U1 or 5 μM tenofovir in 0.25% HEC
[13] = 6.7 μM M48U1 or 20 μM tenofovir in 0.25% HEC

**Q.** Which results are given for `C[C@H](Cn1cnc2c(N)ncnc21)OCP(=O)(O)O` [tenofovir]?
**A.** decrease of HSV-2 infections [1]: 51%; LDH release (Abs) ([2]; 1 h): 0.207 ± 0.06 Abs; LDH release (Abs) ([2]; 4 h): 0.381 ± 0.05 Abs; LDH release (Abs) ([2]; 18 h): 0.922 ± 0.2 Abs; LDH release (Abs) ([2]; 96 h): 1.498 ± 0.13 Abs; infection of PBMCs with patient-derived HIV-1 subtype B and C isolates [3]: inhibited viral replication in all three cases; replication of laboratory HIV-1 strains (p24 in cell supernatant) [4]: suppressed the replication of all HIV-1 strains tested; decrease in the amount of proviral HIV-1 DNA (folds of inhibition, mean) ([5]; 0.67 μM M48U1, 2 μM tenofovir or both in 0.25% HEC): 11 fold; decrease in the amount of proviral HIV-1 DNA (folds of inhibition, mean) ([5]; 6.7 μM M48U1, 20 μM tenofovir or both in 0.25% HEC): ~45 fold; inhibition of HIV-1IIIb replication [6, 12]: over 90%; IC50 ([6]; Human immunodeficiency virus 1, PBMC, 168 h, HIV-1IIIb, activated PBMCs, drug in 0.25% HEC, p24 day 7 post-infection): 1.08 µM; reduction in viral replication [7, 12]: 86.8%; reduction in viral replication [7, 13]: 95%; viability at 1 h, 20 μM ([8]; 1 hour): 95%; viability at 4 h, 20 μM ([8]; 4 hours): 96%; viability at 18 h, 20 μM ([8]; 18 hours): 88%; viability at 96 h, 20 μM ([8]; 96 hours): 104%; reduction in viral replication [9, 12]: 78%; reduction in viral replication [9, 13]: 93%; CC50 at 7 days [10]: > 20 µM; inhibition of HIV-1BaL replication [11, 12]: over 90%; IC50 ([11]; Human immunodeficiency virus 1, PBMC, 168 h, HIV-1BaL, activated PBMCs, drug in 0.25% HEC, p24 day 7 post-infection): 1.22 µM
